The values that follow come from patent US10183943B2, “Heterocyclic compounds and their use in preventing or treating bacterial infections” (MUTABILIS, priority 2015, dated 2019).

One may read the IC50 as the concentration needed to halve the response being measured. The MIC is the lowest concentration found to suppress growth.

Assay [1] has as its target T1, TEM-1 (Escherichia coli, UniProt P62593).
T1 construct: made in house; host or cells: E. coli
Kind of assay: β-lactamase inhibitory activity, determination of IC50 (nitrocefin hydrolysis). The class given is biochemical.

The target of assay [2] is T2, SHV-1 (Klebsiella pneumoniae, UniProt P0AD64).
T2 construct: made in house; host or cells: E. coli
T2 sequence (P0AD64 22-286): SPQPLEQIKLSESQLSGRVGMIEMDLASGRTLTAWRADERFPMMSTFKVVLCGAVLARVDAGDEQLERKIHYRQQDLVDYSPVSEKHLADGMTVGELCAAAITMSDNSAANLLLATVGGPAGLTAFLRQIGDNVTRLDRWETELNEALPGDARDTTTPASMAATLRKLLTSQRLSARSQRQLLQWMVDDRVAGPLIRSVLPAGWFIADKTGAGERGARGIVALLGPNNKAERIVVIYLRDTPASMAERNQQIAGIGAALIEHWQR
The assay is described as above. Type of assay: biochemical.

Assay [3] concerns the target T3, CTX-M-15 (Escherichia coli, UniProt Q9EXV5).
T3 construct: made in house; host or cells: E. coli
The assay is described as above. Type of assay: biochemical. The settings on record: class (A); nitrocefin 200 μM, 30 min pre-incubation; read-out: IC50 β-lactamase CTX-M-15.

For assay [4], the target named is T4, KPC-2 (Klebsiella pneumoniae, UniProt Q9F663).
T4 construct: made in house; host or cells: E. coli
T4 sequence (Q9F663 25-293 limits assumed): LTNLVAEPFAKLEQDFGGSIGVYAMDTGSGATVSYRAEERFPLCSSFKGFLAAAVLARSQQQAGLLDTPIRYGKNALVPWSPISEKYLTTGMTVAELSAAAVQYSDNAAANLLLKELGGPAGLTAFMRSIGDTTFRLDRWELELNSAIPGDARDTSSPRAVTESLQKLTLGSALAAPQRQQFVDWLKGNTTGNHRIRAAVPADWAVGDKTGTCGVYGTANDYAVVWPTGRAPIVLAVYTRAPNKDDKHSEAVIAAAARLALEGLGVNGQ
Described as above. The class given is biochemical. To be noted: class (A); nitrocefin 200 μM, 30 min pre-incubation; read-out: IC50 β-lactamase KPC-2.

In assay [5] the target is T5, OXA-1 (Escherichia coli, UniProt P13661).
T5 construct: made in house; host or cells: E. coli
T5 sequence (P13661 26-276): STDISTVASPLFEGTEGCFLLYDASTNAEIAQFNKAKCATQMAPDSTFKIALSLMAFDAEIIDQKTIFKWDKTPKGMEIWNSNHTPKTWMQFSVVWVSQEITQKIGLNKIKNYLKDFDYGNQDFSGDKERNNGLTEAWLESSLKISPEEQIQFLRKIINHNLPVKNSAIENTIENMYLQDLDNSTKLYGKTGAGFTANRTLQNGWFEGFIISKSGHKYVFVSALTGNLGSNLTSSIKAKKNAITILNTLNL
Described as above. The class given is biochemical. To be noted: class (D); nitrocefin 200 μM, 30 min pre-incubation; read-out: IC50 β-lactamase OXA-1.

For assay [6], the target named is T6, OXA-11 (Pseudomonas aeruginosa, UniProt Q06778).
T6 construct: made in house; host or cells: E. coli
T6 sequence (Q06778 21-266): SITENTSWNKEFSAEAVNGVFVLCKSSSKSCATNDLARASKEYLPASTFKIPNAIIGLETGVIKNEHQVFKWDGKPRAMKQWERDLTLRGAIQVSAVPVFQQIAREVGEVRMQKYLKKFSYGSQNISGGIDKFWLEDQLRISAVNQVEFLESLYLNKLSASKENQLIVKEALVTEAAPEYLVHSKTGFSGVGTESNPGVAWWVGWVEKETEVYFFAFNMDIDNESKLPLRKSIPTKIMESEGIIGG
The description is as above. Type of assay: biochemical.

The target in assay [7] is T7, OXA-15 (Pseudomonas aeruginosa, UniProt Q51574).
T7 construct: made in house; host or cells: E. coli
T7 sequence (Q51574 22-275): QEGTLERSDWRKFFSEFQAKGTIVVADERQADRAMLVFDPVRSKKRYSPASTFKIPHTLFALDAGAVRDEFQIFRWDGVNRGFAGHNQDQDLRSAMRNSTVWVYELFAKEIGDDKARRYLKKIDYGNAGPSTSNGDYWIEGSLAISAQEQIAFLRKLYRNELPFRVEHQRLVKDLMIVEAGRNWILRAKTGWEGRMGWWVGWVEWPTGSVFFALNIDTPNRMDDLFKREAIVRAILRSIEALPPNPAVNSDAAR
Kind of assay: biochemical.

The target of assay [8] is T8, OXA-48 (Klebsiella pneumoniae, UniProt Q6XEC0).
T8 construct: made in house; host or cells: E. coli
T8 sequence (Q6XEC0 23-265 limits assumed): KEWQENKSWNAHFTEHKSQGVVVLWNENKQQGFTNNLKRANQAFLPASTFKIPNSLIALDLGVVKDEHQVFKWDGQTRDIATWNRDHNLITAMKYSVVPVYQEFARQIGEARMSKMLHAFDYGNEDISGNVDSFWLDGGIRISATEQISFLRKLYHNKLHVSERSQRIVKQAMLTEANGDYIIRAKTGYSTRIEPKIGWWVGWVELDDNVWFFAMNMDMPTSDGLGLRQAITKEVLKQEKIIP
Kind of assay: β-lactamase inhibitory activity, determination of IC50 (nitrocefin hydrolysis). The class given is biochemical. The settings on record: class (D); nitrocefin 200 μM, 30 min pre-incubation; read-out: IC50 β-lactamase OXA-48.

In assay [9] the test system is E. cloacae P99 (AmpC). Kind of assay: MIC of compounds alone, broth microdilution. Type of assay: cell-based. The settings on record: Enterobacter cloacae; strain P99 (E. cloacae); read-out: MIC compounds of the invention alone. How it is done:
(§1) Method 2: MIC of Compounds and Synergy with Ceftazidime Against Bacterial Isolates (Table 2 and 3)
(§2) Compounds of the present invention were assessed against genotyped bacterial strains alone or in combination with the β-lactam ceftazidime (CAZ). In the assays, MICs of said compounds, or of ceftazidime at fixed concentrations of said compounds were determined by the broth microdilution method according to the Clinical Laboratory Standards Institute (CLSI-M7-A7). Briefly, compounds alone according to the invention were prepared in DMSO and spotted (2 μL each) on sterile polystyrene plates (Corning, 3788). Compounds and ceftazidime dilutions were prepared in DMSO and spotted (1 μL each) on sterile polystyrene plates (Corning, 3788). Log phase bacterial suspensions were adjusted to a final density of 5×10^5 cfu/mL in cation-adjusted Mueller-Hinton broth (Becton-Dickinson) and added to each well (98 μL). Microplates were incubated for 16-20 h at 35° C. in ambient air. The MIC of the compounds was defined as the lowest concentration of said compounds that prevented bacterial growth as read by visual inspection. The MIC of ceftazidime at each compound concentration was defined as the lowest concentration of ceftazidime that prevented bacterial growth as read by visual inspection.
(In general: Dilution methods test growth across graded concentrations, often in twofold steps.)

Assay [10] relates to E. coli 131119 (TEM-1, OXA-48). Briefly: MIC of compounds alone, broth microdilution. To be noted: Escherichia coli; strain 131119 (E. coli); read-out: MIC compounds of the invention alone. Type of assay: cell-based. How it is done:
as §1, §2

Assay [11] concerns E. coli 190317 (TEM-1, SHV-12, CTX-M-15, OXA-1). Briefly: MIC of compounds alone, broth microdilution. Type of assay: cell-based. The settings on record: Escherichia coli, read-out: MIC compounds of the invention alone. Here is the method:
as §1, §2

For assay [12], the system named is E. coli RGN238 (OXA-1). Kind of assay: MIC of compounds alone, broth microdilution. The settings on record: Escherichia coli; strain RGN238 (E. coli); read-out: MIC compounds of the invention alone. The class given is cell-based. Here is the method:
as §1, §2

Assay [13] has as its system K. pneumoniae 6299 (TEM-1, SHV-11, OXA-163). Kind of assay: MIC of compounds alone, broth microdilution. Type of assay: cell-based. The settings on record: Klebsiella pneumoniae; strain 6299 (K. pneumoniae); read-out: MIC compounds of the invention alone. Here is the method:
as §1, §2

The subject of assay [14] is K. pneumoniae BAA-1898 (TEM-1, SHV-11, SHV-12, KPC-2). Kind of assay: MIC of compounds alone, broth microdilution. The class given is cell-based. To be noted: Klebsiella pneumoniae, BAA1898; strain BAA-1898 (K. pneumoniae); read-out: MIC compounds of the invention alone. How it is done: as §1, §2
Assay [15] has as its system P. aeruginosa CIP107051 (TEM-24). Kind of assay: MIC of compounds alone, broth microdilution. The class given is cell-based. The settings on record: Pseudomonas aeruginosa; strain CIP107051 (P. aeruginosa); read-out: MIC compounds of the invention alone. How it is done: as §1, §2
Assay [16] concerns the target AmpC (P99) (Enterobacter cloacae, UniProt P05364). Kind of assay: β-lactamase inhibitory activity, determination of IC50 (nitrocefin hydrolysis).
Assay [17] has as its target AmpC P. aeruginosa (Pseudomonas aeruginosa, UniProt P24735). The description is as above.

Sequence of AmpC P. aeruginosa (P24735 27-397): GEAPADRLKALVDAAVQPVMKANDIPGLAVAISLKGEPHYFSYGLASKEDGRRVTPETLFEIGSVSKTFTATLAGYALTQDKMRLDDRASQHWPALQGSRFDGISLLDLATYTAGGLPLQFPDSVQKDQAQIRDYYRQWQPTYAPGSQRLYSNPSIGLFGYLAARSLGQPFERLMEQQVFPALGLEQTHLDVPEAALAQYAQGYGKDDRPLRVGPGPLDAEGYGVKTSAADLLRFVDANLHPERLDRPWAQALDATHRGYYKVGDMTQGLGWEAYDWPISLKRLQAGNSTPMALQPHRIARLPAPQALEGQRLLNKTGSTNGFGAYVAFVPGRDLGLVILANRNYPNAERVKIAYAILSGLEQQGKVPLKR
T1 sequence (P62593 24-286 limits assumed): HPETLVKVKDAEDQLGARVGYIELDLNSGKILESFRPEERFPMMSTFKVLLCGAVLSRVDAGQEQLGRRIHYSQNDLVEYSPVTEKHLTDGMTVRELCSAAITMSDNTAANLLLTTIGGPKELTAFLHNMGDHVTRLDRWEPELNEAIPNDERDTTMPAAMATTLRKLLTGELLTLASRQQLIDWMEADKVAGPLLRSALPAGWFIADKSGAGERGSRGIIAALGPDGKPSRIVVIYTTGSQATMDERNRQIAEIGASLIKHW
Sequence of AmpC (P99) (P05364 21-381): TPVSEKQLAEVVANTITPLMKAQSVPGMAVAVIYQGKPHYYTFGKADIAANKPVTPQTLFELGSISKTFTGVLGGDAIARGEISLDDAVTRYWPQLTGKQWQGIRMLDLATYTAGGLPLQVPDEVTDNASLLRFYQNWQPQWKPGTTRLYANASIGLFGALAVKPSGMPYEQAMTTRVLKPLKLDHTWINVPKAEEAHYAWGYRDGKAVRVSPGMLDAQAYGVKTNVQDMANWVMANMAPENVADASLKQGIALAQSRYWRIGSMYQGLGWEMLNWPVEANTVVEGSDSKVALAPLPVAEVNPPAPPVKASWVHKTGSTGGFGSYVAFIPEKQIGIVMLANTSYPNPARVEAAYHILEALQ
T3 sequence (Q9EXV5 entry or part of it): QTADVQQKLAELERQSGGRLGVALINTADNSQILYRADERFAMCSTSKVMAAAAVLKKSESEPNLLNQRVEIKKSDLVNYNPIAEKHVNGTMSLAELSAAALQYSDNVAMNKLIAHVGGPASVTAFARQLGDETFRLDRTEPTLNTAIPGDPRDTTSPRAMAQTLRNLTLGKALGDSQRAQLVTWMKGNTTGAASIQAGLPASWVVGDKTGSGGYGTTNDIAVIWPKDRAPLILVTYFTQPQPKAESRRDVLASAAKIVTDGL

With `Cn1cccc(C2=CCN3CC2N(OS(=O)(=O)[O-])C3=O)c1=O.[Na+]` (stereo not shown) [Example 16, Sodium [4-(N-methyl-2-oxo-3-pyridyl)-7-oxo-1,6-diazabicyclo[3.2.1]oct-3-en-6-yl] sulfate], the IC50 in assay [1] worked out at 56 nM; in assay [2], 120 nM; in [3], 100 nM; in [4] it was 4500 nM; in assay [5] it was 720 nM; in [6], 7400 nM. The 50% inhibitory concentration (IC50) in [7] turned out to be 27 nM; in assay [8], 10 nM; in assay [16], 7300 nM; in assay [17], 7100 nM. The MIC in assay [9], in assay [10], in assay [11], in [12], in assay [13] and in assay [14] was over 32 µg/mL throughout. Moreover, the MIC in assay [15] was over 32 µg/mL.

For the molecule `Cn1nc(C2=CCN3CC2N(OS(=O)(=O)[O-])C3=O)ccc1=O.[Na+]` (stereo not shown) [Example 17, Sodium [4-(1-methyl-6-oxo-pyridazin-3-yl)-7-oxo-1,6-diazabicyclo[3.2.1]oct-3-en-6-yl] sulfate], the IC50 came to 1.2 nM in assay [1]; 2.8 nM in assay [2]; 5.7 nM in assay [3]; 130 nM in assay [4]; 330 nM in assay [5]; 1400 nM in assay [6]. Further, the IC50 in assay [7] was determined as 57 nM; in [8], 3.9 nM; in [16] it was 2300 nM; in assay [17] it was 910 nM. Further, the MIC in assay [9] was 16 µg/mL; in assay [10], 16 µg/mL; in assay [11], 4 µg/mL; in [12], 32 µg/mL; in assay [13], over 32 µg/mL; in [14], over 32 µg/mL. The MIC in assay [15] is over 32 µg/mL.

Turning to `Cn1c(C2=CCN3CC2N(OS(=O)(=O)[O-])C3=O)cccc1=O.[Na+]` (stereo not shown) [Example 18, Sodium [4-(N-methyl-6-oxo-2-pyridyl)-7-oxo-1,6-diazabicyclo[3.2.1]oct-3-en-6-yl] sulfate], the IC50 in [1] was 2.7 nM; in assay [2], 11 nM; in assay [3], 17 nM; in assay [4], 1800 nM; in assay [5], 35 nM; in [6] it was 540 nM. Further, the IC50 in assay [7] turned out to be 14 nM; in assay [8], 20 nM; in assay [16] it was 230 nM; in assay [17] it was 2700 nM. In addition, the MIC was 16 µg/mL in [9]; over 32 µg/mL in assay [10]; over 32 µg/mL in assay [11]; over 32 µg/mL in [12]; over 32 µg/mL in assay [13]; over 32 µg/mL in [14]. For the same molecule, in [15], the MIC was over 32 µg/mL.

Turning to `Cn1cnc(C2=CCN3CC2N(OS(=O)(=O)[O-])C3=O)cc1=O.[Na+]` (stereo not shown) [Example 20, Sodium [4-(N-methyl-6-oxo-pyrimidin-4-yl)-7-oxo-1,6-diazabicyclo[3.2.1]oct-3-en-6-yl] sulfate], the IC50 in assay [1] stood at 1 nM; in [2], 6.7 nM; in assay [3] it was 3.5 nM; in assay [4], 87 nM; in [5], 1900 nM; in assay [6], 430 nM. Also, the IC50 in [7] was 94 nM; in assay [8], 2.2 nM; in [16] it was 1900 nM; in assay [17] it was 3200 nM. The MIC in assay [9] is 32 µg/mL; in assay [10], 32 µg/mL; in assay [11], 8 µg/mL; in assay [12], over 32 µg/mL; in assay [13] it was over 32 µg/mL; in [14], over 32 µg/mL. Also, the MIC in assay [15] was over 32 µg/mL.

In the case of `Cn1cc(C2=CCN3CC2N(OS(=O)(=O)[O-])C3=O)c(=O)n(C)c1=O.[Na+]` (stereo not shown) [Example 23, Sodium [4-(1,3-dimethyluracil-5-yl)-7-oxo-1,6-diazabicyclo[3.2.1]oct-3-en-6-yl] sulfate], the IC50 in [1] was 1.5 nM; in assay [2] it was 3.1 nM; in assay [3], 12 nM; in [4], 97 nM; in [5] it was 870 nM; in assay [6], 2200 nM. The IC50 in assay [7] was determined as 110 nM; in assay [8] it was 4.8 nM; in assay [16] it was 580 nM; in [17], 1600 nM. Moreover, the MIC was over 32 µg/mL in [9]; 32 µg/mL in assay [10]; over 32 µg/mL in assay [11]; over 32 µg/mL in assay [12]; over 32 µg/mL in assay [13]; over 32 µg/mL in assay [14]. The MIC in [15] is over 32 µg/mL.

Regarding `COc1ncc(C2=CCN3CC2N(OS(=O)(=O)[O-])C3=O)cn1.[Na+]` (stereo not shown) [Example 24, Sodium [4-(2-methoxypyrimidin-5-yl)-7-oxo-1,6-diazabicyclo[3.2.1]oct-3-en-6-yl] sulfate], the IC50 in [1] is 12 nM; in [2] it was 20 nM; in assay [3] it was 14 nM; in [4], 160 nM; in [5], 380 nM; in assay [6] it was 1200 nM. Also, the IC50 in assay [7] was determined as 48 nM; in assay [8], 3.6 nM; in [16], 1100 nM; in assay [17] it was 1400 nM. In addition, the MIC is over 32 µg/mL in [9]; over 32 µg/mL in assay [10]; 16 µg/mL in assay [11]; over 32 µg/mL in assay [12]; over 32 µg/mL in assay [13]; over 32 µg/mL in assay [14]. The MIC in assay [15] was over 32 µg/mL.

`O=C1N2CC(c3nc4ccccc4s3)=CC(C2)N1OS(=O)(=O)[O-].[Na+]` (stereo not shown) [Example 27, Sodium [3-(1,3-benzothiazol-2-yl)-7-oxo-1,6-diazabicyclo[3.2.1]oct-3-en-6-yl] sulfate]: the IC50 stood at 0.21 nM in assay [1]; 2.1 nM in assay [2]; 1.4 nM in assay [3]; 2.7 nM in [4]; 560 nM in [5]; 150 nM in assay [6]. The IC50 in assay [7] amounted to 99 nM; in [8], 6.4 nM; in assay [16] it was 9.1 nM; in [17], 68 nM. Further, the MIC in [9], in assay [10], in assay [11], in assay [12], in assay [13] and in assay [14] was over 32 µg/mL in each case. In addition, the MIC in assay [15] was over 32 µg/mL.

Regarding `Cn1cc(C2=CC3CN(C2)C(=O)N3OS(=O)(=O)[O-])ccc1=O.[Na+]` (stereo not shown) [Example 28, Sodium [3-(1-methyl-6-oxo-3-pyridyl)-7-oxo-1,6-diazabicyclo[3.2.1]oct-3-en-6-yl] sulfate], the IC50 in assay [1] is 1.6 nM; in [2], 3.8 nM; in assay [3], 4.4 nM; in assay [4], 6.5 nM; in [5] it was 1000 nM; in assay [6] it was 430 nM. For the same molecule, the IC50 in assay [7] came to 18 nM; in assay [8], 54 nM; in assay [16], 77 nM; in assay [17], 520 nM. Also, the MIC in [9], in [10], in assay [11], in assay [12], in assay [13] and in [14] was over 32 µg/mL each time. For the same molecule, in assay [15], the MIC was over 32 µg/mL.
